From the NIST ThermoML archive (doi:10.1016/j.tca.2012.02.017)

Experiments:
[1] = molar heat capacity at constant pressure; xn = mol fraction of the nth substance listed; settings: 101 kPa, Liquid, Large sample (1 g) DSC
[2] = molar heat capacity at constant pressure; settings: 101.33 kPa, Liquid, Large sample (1 g) DSC

CC(O)COC(C)COC(C)CO (stereo unspecified) [2-[2-(2-hydroxypropoxy)propoxy]-1-propanol] + O
molar heat capacity at constant pressure [J/K/mol], [1]
Settings	x1 = 0.2	x1 = 0.4	x1 = 0.5	x1 = 0.6	x1 = 0.8
303.15 K	158.9	234.7	271.9	309	381.4
308.15 K	160.5	237.2	275.1	312.1	385.8
313.15 K	162.2	240	278.1	315.6	389.6
318.15 K	163.4	241.6	280.9	317.9	392.4
323.15 K	164.9	244.5	283.2	321.6	396.3
328.15 K	166.2	246.6	286.1	324.7	400.5
333.15 K	167.8	249.9	289.3	328.3	404.1
338.15 K	169.1	252.2	292.5	331.3	407.6
343.15 K	170.7	254.8	295.5	334.9	411.8
348.15 K	172.2	257.4	298.5	338.2	416
353.15 K	173.9	260.2	302.1	342.1	420.3

OCCCOCCCO [4-oxa-1,7-heptanediol]
[2]
Settings	molar heat capacity at constant pressure [J/K/mol]
303.15 K	329
313.15 K	335.9
323.15 K	342
333.15 K	348.5
343.15 K	355.1
353.15 K	362.6
